Laboratory results published in US8222425B2, “Organic compounds and their uses” (Novartis AG, priority 2007, dated 2012).
Values after ≈ are worked out from the molar mass of the structure shown. Where two headings read alike, the source gives them in different places.

Key:
Thermodynamic solubility = format: physicochemical; settings: thermodynamic from solid
Protocol: Thermodynamic solubility for the compounds of the invention listed in Table C is measured by a published literature procedure, e.g., Liping Zhou, et al., J. Pharm. Sci. (2007) 96(11): 3052-3071.
The DMSO stocks of test compounds previously dissolved in 25 μL of DMSO (˜10 mM) in mini-prep vial (MPV: Whatman, with PVDF filter and 0.45 μm pore size) chamber were evaporated via a GeneVac HT-4X evaporator for approximately 1 hour, at the guard temperature of 30° C. An aliquot of 250 μL buffer solution (pH 1.0 or 6.8) was added into each MPV chamber containing powders reconstituted from DMSO stock solutions. The MPV filter plungers were pushed down into the chamber until the membrane of the filter plunger slightly touched the surface of the buffer to promote equilibrium between the two compartments and to minimize the adsorption due to non-specific binding of samples during the subsequent 24-hr incubation (at 600 RPM at room temperature). Immediately after the 24-hr incubation, the plungers were further pushed down to the bottom of the chambers. More solution was pushed through the membrane and entered the plunger compartment. The filter/chamber assemblies were then put on a shaker for another 30 minutes at 600 RPM. Afterwards, filtrates were further diluted (1:10) with 50/50 acetonitrile/water solvent followed by a thorough mixing process. Both plates with diluted and undiluted filtrates were analyzed by HPLC and quantified against the four-point standard dilution curve of the same test compound (5 μM, 35 μM, 65 μM and 100 μM, respectively). In the current study, solubility reflects the average of triplicate samples tested at each pH.

[1] = Pharmacokinetic profile in rats; set-up: species or system Sprague Dawley rats; settings: rat, in vivo; for Cmax: Sprague Dawley; for Cmax / AUC: po, 10 mg/kg
Protocol: Compounds listed in Table D are administered as a solution orally via gavage at 10 mg/kg to Sprague Dawley rats at a dosing volume of 10 ml/kg. Samples are collected via a surgically implanted cannula at selected timepoints deemed necessary to characterize pharmacokinetic parameters. Blood samples are placed on wet ice and spun down to plasma within 5 minutes of timepoint collection. Plasma samples are frozen until bioanalytical analysis. Compounds listed in Table D are administered intravenously into a surgically implanted cannula as a solution at 1 mg/kg to Sprague Dawley rats at a dosing volume of 1 ml/kg. Samples are collected via another surgically implanted cannula at selected timepoints deemed necessary to characterize pharmacokinetic parameters. Blood samples are placed on wet ice and spun down to plasma within 5 minutes of timepoint collection. Plasma samples are frozen until bioanalytical analysis.

HCV = settings: ribavirin alone; cited from earlier work

Row | Compound | solubility at 24 h (Thermodynamic solubility; pH 1, simulated gastric fluid) [µM] | solubility at 24 h (Thermodynamic solubility; pH 6.8, aqueous buffer) [µM] | Cmax [1] [nM] | AUC [1] [nM·h/mg/kg] | further results
1 | NC(=O)c1ncn([C@@H]2O[C@H](CO)[C@@H](O)[C@H]2O)n1 [Ribavirin, 1-β-D-ribofuranosyl-1-1,2,4-triazole-3-caroxamide] |  |  |  |  | patients in whom serum amino transferase levels are reduced to normal (HCV): 40%
2 | CCCC(NC(=O)[C@@H]1C[C@@]2(CN1C(=O)[C@@H](NC(=O)[C@@H](NC(=O)C1CCN1C(C)(C)C)C1CCCCC1)C(C)(C)C)C(C)(C)C21CCC1)C(=O)C(=O)NC1CC1 (stereo partly shown) [Compound A-64] | 710 (≈ 545 µg/mL) | < 85 | 904 | 274 | 
3 | CCC[C@H](NC(=O)[C@@H]1C[C@@]2(CN1C(=O)[C@@H](NC(=O)[C@@H](NC(=O)[C@@H]1CCCCN1C(C)C)C1CCCCC1)C(C)(C)C)C(C)(C)C21CCC1)C(=O)C(=O)NC1CC1 [Compound A-6] | 930 (≈ 726 µg/mL) | < 5 |  |  | 
4 | C=C[C@@H]1C[C@]1(NC(=O)[C@@H]1C[C@@]2(CN1C(=O)[C@@H](NC(=O)[C@@H](NC(=O)[C@@H]1CCCCN1C(C)C)C(C)(C)C)C(C)(C)C)C(C)(C)C21CCC1)C(=O)NS(=O)(=O)C1CC1 [Compound A-7] |  |  |  |  | solubility at 24 h (Thermodynamic solubility; aqueous buffer, thermodynamic solubility, buffer pH 6.8, 24-hr incubation at room temperature, read-out: Solubility (pH 6.8)): 840 µM (≈ 673 µg/mL); solubility at 24 h (Thermodynamic solubility; simulated gastric fluid, thermodynamic solubility, buffer pH 1.0, 24-hr incubation at room temperature, read-out: Solubility (pH 1)): 900 µM (≈ 721 µg/mL)
5 | CCC[C@H](NC(=O)[C@@H]1C[C@@]2(CN1C(=O)[C@@H](NC(=O)[C@@H](NC(=O)[C@@H]1CCCN(C)C1)C(C)(C)C)C1CCCCC1)C(C)(C)C21CCC1)C(=O)C(=O)NC1CC1 [Compound A-66] | 840 (≈ 633 µg/mL) | 600 (≈ 452 µg/mL) |  |  | 
6 | CCC[C@H](NC(=O)[C@@H]1C[C@@]2(CN1C(=O)[C@@H](NC(=O)[C@@H](NC(=O)[C@@H]1CN(C)CCN1C(C)C)C1CCCCC1)C(C)(C)C)C(C)(C)C21CCC1)C(=O)C(=O)NC1CC1 [Compound A-43] | 640 (≈ 510 µg/mL) | 290 (≈ 231 µg/mL) |  |  | 
7 | CCC[C@H](NC(=O)[C@@H]1C[C@@]2(CN1C(=O)[C@@H](NC(=O)[C@@H](NC(=O)[C@@H]1CCCCN1C(C)C)C(C)(C)C)C(C)(C)C)C(C)(C)C21CCC1)C(=O)C(=O)NC1CC1 [Compound A-44] | 690 (≈ 521 µg/mL) | 64 (≈ 48.3 µg/mL) | 1110 | 523 | Bioavailability [1]: 43 % F
8 | CCC[C@H](NC(=O)[C@@H]1C[C@@]2(CN1C(=O)[C@@H](NC(=O)[C@@H](NC(=O)[C@@H]1CCCN(CC)C1)C1CCCCC1)C(C)(C)C)C(C)(C)C21CCC1)C(=O)C(=O)NC1CC1 [Compound A-15] | 700 (≈ 537 µg/mL) | 170 (≈ 130 µg/mL) | 2030 | 474 | Bioavailability [1]: 42 % F
9 | CCC[C@H](NC(=O)[C@@H]1C[C@@]2(CN1C(=O)[C@@H](NC(=O)[C@@H](NC(=O)[C@H]1CCCN(C)C1)C(C)(C)C)C1CCCCC1)C(C)(C)C21CCC1)C(=O)C(=O)NC1CC1 [Compound A-67] | 740 (≈ 557 µg/mL) | 690 (≈ 520 µg/mL) |  |  | 

Second part, led by results:

Row | solubility at 24 h (Thermodynamic solubility; pH 1, simulated gastric fluid) [µM] | solubility at 24 h (Thermodynamic solubility; pH 6.8, aqueous buffer) [µM] | Cmax [1] [nM] | AUC [1] [nM·h/mg/kg] | Compound | further results
10 | 480 (≈ 375 µg/mL) | 44 (≈ 34.4 µg/mL) |  |  | CCC[C@H](NC(=O)[C@@H]1C[C@@]2(CN1C(=O)[C@@H](NC(=O)[C@@H](NC(=O)[C@H]1CCCCN1C(C)C)C1CCCCC1)C(C)(C)C)C(C)(C)C21CCC1)C(=O)C(=O)NC1CC1 [Compound A-5] | 
11 | 960 (≈ 698 µg/mL) | 930 (≈ 676 µg/mL) |  |  | CCC[C@H](NC(=O)[C@@H]1C[C@@]2(CN1C(=O)[C@@H](NC(=O)[C@@H](NC(=O)[C@@H]1CCCN(C)C1)C(C)(C)C)C(C)(C)C)C(C)(C)C21CCC1)C(=O)C(=O)NC1CC1 [Compound A-58] | 
12 | 840 (≈ 622 µg/mL) | 550 (≈ 408 µg/mL) | 653 | 203 | CCC[C@H](NC(=O)[C@@H]1C[C@@]2(CN1C(=O)[C@@H](NC(=O)[C@@H](NC(=O)[C@H]1CCCN(CC)C1)C(C)(C)C)C(C)(C)C)C(C)(C)C21CCC1)C(=O)C(=O)NC1CC1 [Compound A-59] | 
13 | 810 (≈ 589 µg/mL) | < 5 |  |  | CCC[C@H](NC(=O)[C@@H]1C[C@@]2(CN1C(=O)[C@@H](NC(=O)[C@@H](NC(=O)[C@@H]1CCN1C(C)C)C(C)(C)C)C(C)(C)C)C(C)(C)C21CCC1)C(=O)C(=O)NC1CC1 [Compound A-73] | 
14 | 910 (≈ 685 µg/mL) | 24 (≈ 18.1 µg/mL) | 1470 | 460 | CCC[C@H](NC(=O)C1C[C@@]2(CN1C(=O)[C@@H](NC(=O)[C@@H](NC(=O)[C@@H]1CCCN1CC)C1CCCCC1)C(C)(C)C)C(C)(C)C21CCC1)C(=O)C(=O)NC1CC1 (stereo partly shown) [Compound A-10] | Bioavailability [1]: 46 % F
15 | 830 (≈ 625 µg/mL) | 240 (≈ 181 µg/mL) |  |  | CCC[C@H](NC(=O)[C@@H]1C[C@@]2(CN1C(=O)[C@@H](NC(=O)[C@@H](NC(=O)[C@@H]1CCCN(C)C1)C1CCCCC1)C(C)(C)C)C(C)(C)C21CCC1)C(=O)C(=O)NC1CC1 [Compound A-50] | 
16 | 830 (≈ 638 µg/mL) | < 5 |  |  | CCC[C@H](NC(=O)[C@@H]1C[C@@]2(CN1C(=O)[C@@H](NC(=O)[C@@H](NC(=O)[C@@H]1CCCCN1C(C)C)C(C)(C)C)C(C)(C)C)C(C)(C)C21CCC1)C(=O)C(=O)NC1CCC1 [Compound A-82] | 
17 | 870 (≈ 655 µg/mL) | 92 (≈ 69.3 µg/mL) |  |  | CCC[C@H](NC(=O)C1C[C@@]2(CN1C(=O)[C@@H](NC(=O)[C@@H](NC(=O)[C@H]1CCCN1CC)C1CCCCC1)C(C)(C)C)C(C)(C)C21CCC1)C(=O)C(=O)NC1CC1 (stereo partly shown) [Compound A-11] | 
18 | 790 (≈ 619 µg/mL) | 28 (≈ 21.9 µg/mL) | 1430 | 416 | CCC[C@H](NC(=O)[C@@H]1C[C@@]2(CN1C(=O)[C@@H](NC(=O)[C@@H](NC(=O)[C@@H]1CCCCN1C(C)C)C1CCCCC1)C(C)(C)C)C(C)(C)C21CCC1)C(=O)C(=O)NC(C)C [Compound A-54] | Bioavailability [1]: 28 % F
19 | 930 (≈ 700 µg/mL) | < 5 | 796 | 241 | CCC[C@H](NC(=O)[C@@H]1C[C@@]2(CN1C(=O)[C@@H](NC(=O)[C@@H](NC(=O)[C@@H]1CCN1C(C)C)C1CCCCC1)C(C)(C)C)C(C)(C)C21CCC1)C(=O)C(=O)NC1CC1 [Compound A-62] | Bioavailability [1]: 36 % F
20 | 630 (≈ 492 µg/mL) | 200 (≈ 156 µg/mL) |  |  | CCCC(NC(=O)[C@@H]1C[C@@]2(CN1C(=O)[C@@H](NC(=O)[C@@H](NC(=O)[C@@H]1CCCN(C(C)C)C1)C1CCCCC1)C(C)(C)C)C(C)(C)C21CCC1)C(=O)C(=O)NC1CC1 (stereo in doubt) [Compound A-4] | 
21 | 840 (≈ 622 µg/mL) | 340 (≈ 252 µg/mL) |  |  | CCC[C@H](NC(=O)[C@@H]1C[C@@]2(CN1C(=O)[C@@H](NC(=O)[C@@H](NC(=O)[C@H]1CCCCN1CC)C(C)(C)C)C(C)(C)C)C(C)(C)C21CCC1)C(=O)C(=O)NC1CC1 [Compound A-72] | 
22 | 720 (≈ 562 µg/mL) | < 5 |  |  | CCC[C@H](NC(=O)[C@@H]1C[C@@]2(CN1C(=O)[C@@H](NC(=O)[C@@H](NC(=O)[C@@H]1CCCCN1C(C)C)C(C)(C)C)C1CCCCC1)C(C)(C)C21CCC1)C(=O)C(=O)NC1CC1 [Compound A-45] | 
23 | 790 (≈ 584 µg/mL) | 110 (≈ 81.3 µg/mL) |  |  | CCC[C@H](NC(=O)[C@@H]1C[C@@]2(CN1C(=O)[C@@H](NC(=O)[C@@H](NC(=O)[C@@H]1CCCN1C)C1CCCCC1)C(C)(C)C)C(C)(C)C21CCC1)C(=O)C(=O)NC1CC1 [Compound A-33] | 
